According to patent US8691529B2, “Increasing protein production by increasing ABC50 expression or activity” (University Health Network, priority 2009, dated 2014):

How the values were obtained:
[1] = test system: ser51-phosphorylated eIF2α; experiment: ER stress response, Western blot of ser51-phosphorylated eIF2α; format: cell-based, Human; conditions: Ec 15 μM, Tg 200 nM, 60 minutes; for levels of phosphorylated eIF2α: ABC50 overexpressing cells, Tu 200 ng/ml; for induction of increased levels of phosphorylated eIF2α: ABC50 knockdown cells vs vector control
Method: FIG. 6. ABC50 knockdown or overexpression alters the ER stress response. Vector controls, knockdown (A, B) or overexpressing cells (C, D) were exposed to Ec (15 μM), Tg (200 nM) or Tu (200 ng/ml) for 60 minutes. The cells were collected, lysed in RIPA buffer, resolved by SDS-PAGE and analysed with anti-sera specific for A, C: ser51-phosphorylated eIF2α or total eIF2α, B, D: BiP or actin. Numbers represent relative expression levels compared to control normalized to either total eIF2α or actin. The blots are representative of two independent experiments.
Cells were washed with PBS and lysed with Triple lysis buffer (50 mM Tris pH7.0, 150 mM NaCl, 0.1% SDS, 1% NP-40 and 0.5% DOC). Proteinase inhibitor (Boehringer) was added to 10 ml lysis buffer before use. Protein concentration was determined with the Pierce BCA kit. 20 μg of total protein was loaded onto 10% SDS-PAGE, transferred onto filters and blotted with rabbit anti-human ABC50 polyclonal serum (kind gift from Dr. C. Proud, Vancouver, Canada). eIF2α and its phosphorylated form (Ser51) were detected with rabbit polyclonal antibodies from Cell Signalling (Danvers, Mass.). Mouse anti-BiP/GRP78 antibodies were obtained from BD Biosciences (San Jose, Calif.) Anti-actin (pan Ab-5, Clone ACTN05) (Labvision/Neomarker, Fremont, Calif.) was used as a loading control.

sp2 cells = experiment: Cell viability of Ec-selected sp2 cells, Trypan Blue staining; format: cell-based, mouse; conditions: exposure overnight
Method: FIG. 10. Generation of Ec-resistant sp2 cells. Sp2 cells were exposed to increasing concentrations of Econazole. Cells remaining after treatment were expanded and subjected to additional rounds of selection. A: cell viability for unselected (U) and selected (S) cells. Exposure to Econazole was for 2 hours in low serum medium, followed by a recovery period of 24 hours in full growth medium. Cells were exposed to Thapsigargin (Tg) and Tunicamycin (Tu) overnight. Cell viability was determined by Trypan Blue staining of 200 cells. B: Western blot of ABC50 expression in sp2 cells selected for resistance to Ec showing increased expression. C: Quantitation of expression normalized to actin. **p<0.01, ***p<0.001 comparing selected vs unselected.

HL60 cells [2] = experiment: Apoptosis induction by ER stress agents and etoposide, AnnexinV/PI flow cytometry, HL60 cells; format: cell-based, Human; conditions: 15 μM Ec 2 hours, 200 nM Tg, 1 μM Tu or 5 μM etoposide overnight; for sensitivity to apoptosis induction, ABC50 knockdown vs vector control: HL60 ABC50 knockdown cells; for sensitivity to apoptosis induction, ABC50 overexpressing vs control cells: HL60 ABC50 overexpressing cells
Method: FIG. 3 ABC50 knockdown alters growth rate and sensitivity to Ec in HL60 cells. A: Western blot of ABC50 expression in HL60 cells infected with vector control or ABC50 shRNA. B: Cell growth kinetics of control and ABC50 knocked-down cells. Values are means and standard errors determined from triplicate cultures and is representative measurement from a series of three independent experiments. ***indicates p<0.001 at 48 hours for ABC50 KD cells vs control. C: Apoptosis induction by serum withdrawal (SW), Ec, Tg, Tu and etoposide (Eto) in HL60 vector control and ABC50 knockdown cells. Cells were exposed to 15 μM Ec for 2 hours followed by overnight recovery as described in Materials and Methods. Cells were incubated overnight in the absence of serum, 200 nM Tg, 1 μM Tu or 5 μM etoposide. The following day, cells were stained with PI and AnnexinV and analysed by flow cytometry. AnnexinV positive, PI negative cells represent early apoptotic cells, AnnexinV positive, PI positive cells represent late apoptotic or necrotic cells. Plotted is early and late apoptotic cells combined. *p<0.05, **p<0.01 comparing knockdown or overexpressing cells to their vector control.
FIG. 4 Effect of ABC50 overexpression on growth rate and sensitivity to ER stress agents in HL60 cells. A: Western blot of ABC50 expression in HL60 cells infected with vector control or ABC50 OE vector. B: Cell growth kinetics of control and ABC50 overexpressing cells. Values are means and standard errors determined from triplicate cultures and is representative measurement from a series of three independent experiments. C: Apoptosis induction by serum withdrawal (SW), Ec, Tg, Tu and etoposide (Eto) in HL60 vector control and ABC50 overexpressing cells. Cells were exposed to 15 μM Ec for 2 hours followed by overnight recovery as described in Materials and Methods. Cells were incubated overnight in the absence of serum, 200 nM Tg, 1 μM Tu or 5 μM etoposide. The following day, cells were stained with PI and AnnexinV and analysed by flow cytometry. AnnexinV positive, PI negative cells represent early apoptotic cells, AnnexinV positive, PI positive cells represent late apoptotic or necrotic cells. Plotted is early and late apoptotic cells combined. *p<0.05, **p<0.01 comparing knockdown or overexpressing cells to their vector control.
(§1) To measure apoptosis induced by Econazole (Ec; Sigma-Aldrich, St. Louis, Mo.), cells were treated with Ec in RPMI containing 1% FBS for 2 hours at 37° C. then further incubated overnight in RPMI containing 10% FBS. Apoptosis induced by thapsigargin (Tg; Sigma-Aldrich) or Tunicamycin (Tu; Sigma-Aldrich) was determined after overnight incubation in RPMI containing 1% FBS. The cells were washed with PBS and stained with Annexin V-cy5 Apoptosis Detection kit (Biovision. Inc., Mountain View, Calif.)/PI and analysed by flow cytometry.

HL60 cells [3] = experiment: Global protein synthesis, 3H-leucine incorporation; format: cell-based, Human; conditions: 15 μM Ec for 15 minutes
Method: FIG. 8 Effect of ABC50 knockdown or overexpression on global protein synthesis. Cells were incubated with 15 μM Ec for 15 minutes, pulse-labelled with 3H-leucine and incorporation was measured as described in Materials and Methods. A: Vector control vs ABC50 knock-down. B: Vector control vs ABC50 overexpression. The values are averages and standard errors from 4 replicates. This experiment was repeated six times. *p<0.05, **p<0.01 comparing knockdown or overexpressing cells to their vector control.
Cells (2×10^5/sample) were collected, washed with PBS and then re-suspended in RPMI supplemented with fatty acid-free bovine serum albumin (BSA; 0.05%; Sigma). Cells were treated with Ec (0, 15 μM) for 15 min. After centrifugation (2,500 rpm; 5 min), cells were pulse-labeled with [^3H]-leucine (50 μCi/ml) for 10 min (37° C.; 5% CO2) in leucine-free RPMI. After two washes in RPMI, pellets were lysed with Triton X-100 (0.5% in PBS) followed by trichloroacetic acid (TCA, 10% w/v; 4° C.). Samples were washed in TCA (5% w/v), and the protein pellets were re-suspended in microscintillant (Packard, Conn., USA) and measured using a microplate scintillation counter (Packard).

E2R2 cells = experiment: Apoptosis induction by Ec, AnnexinV/PI flow cytometry, E2R2 cells; format: cell-based, Human; conditions: 15 μM Ec for 2 hours, overnight recovery
Method: FIG. 2 ABC50 knockdown partially reverses resistance to Ec in E2R2 cells. A: Western blot of ABC50 expression in E2R2 cells infected with vector control or ABC50 shRNA. B: Apoptosis induction by Ec in E2R2 vector control and ABC50 knockdown cells. Cells were exposed to 15 μM Ec for 2 hours followed by overnight recovery as described in Materials and Methods. The following day, cells were stained with PI and AnnexinV and analysed by flow cytometry. AnnexinV positive, PI negative cells represent early apoptotic cells, AnnexinV positive, PI positive cells represent late apoptotic or necrotic cells.
as §1

| Molecule | levels of phosphorylated eIF2α [1] | resistance of Ec-resistant sp2 cells (cell viability, selected vs unselected) (sp2 cells) | sensitivity to apoptosis induction, ABC50 knockdown vs vector control (HL60 cells [2]) | sensitivity to apoptosis induction, ABC50 overexpressing vs control cells (HL60 cells [2]) | induction of increased levels of phosphorylated eIF2α [1] | protein synthesis rates after exposure (HL60 cells [3]; ABC50 knock down cells) | protein synthesis level after exposure, compared to control cells (HL60 cells [3]; ABC50 overexpressing cells) | protein synthesis levels after exposure (HL60 cells [3]; vector control cells) | combined early and late apoptosis (E2R2 cells; E2R2 ABC50 knockdown cells) | combined early and late apoptosis (E2R2 cells; E2R2 vector control cells) |
| --- | --- | --- | --- | --- | --- | --- | --- | --- | --- | --- |
| Tunicamycin | reduced levels | relatively resistant | significantly increased the sensitivity | decreased sensitivity | – | – | – | – | – | – |
| COc1cc([C@@H]2c3cc4c(cc3[C@@H](O[C@@H]3O[C@@H]5CO[C@@H](C)O[C@H]5[C@H](O)[C@H]3O)[C@H]3COC(=O)[C@H]23)OCO4)cc(OC)c1O [etoposide] | – | – | did not affect sensitivity | unchanged | – | – | – | – | – | – |
| Clc1ccc(COC(Cn2ccnc2)c2ccc(Cl)cc2Cl)cc1 (centres unmarked) [Ec, 1-[2-[(4-chlorophenyl)methoxy]-2-(2,4-dichlorophenyl)ethyl]-1H-imidazole] | reduced levels | – | significantly increased the sensitivity | decreased sensitivity | particularly effective | reduced protein synthesis rates even further | significantly less reduced | significant decrease | 21.4% | 7.6% |
| C/C=C(/C)C(=O)O[C@H]1C(C)=C2[C@H]([C@@H]1OC(=O)CCCCCCC)[C@@](C)(OC(C)=O)C[C@H](OC(=O)CCC)[C@@]1(O)[C@H]2OC(=O)[C@@]1(C)O [Tg, thapsigargin] | reduced levels | relatively resistant | significantly increased the sensitivity | decreased sensitivity | particularly effective | – | – | – | – | – |
